Here are results for 14 compounds from PMC8064491, “Design and Synthesis of Novel Symmetric Fluorene-2,7-Diamine Derivatives as Potent Hepatitis C Virus Inhibitors” (Pharmaceuticals, 2021).

The structures appear in SMILES notation.

As a reminder, the EC50 is the midpoint of the concentration-response curve. What is called CC50 is the concentration giving 50% cytotoxicity.

In data set [1] the test system is HCV subgenomic reporter replicon of genotype 1b (strain Con1). Nature of the data set: Anti-HCV 1b activity, luciferase reporter replicon assay in Huh5-2 cells. It counts as cell-based, Hepatitis C virus. As to conditions: for fold more potent than six-membered congeners: 1, 9, 17, 21 vs 29, 30, 31, 32 respectively, HCV 1b EC50 ratio; for EC50: Hepatitis C virus, Huh-5-2, 72 h, read-out: HCV Replicon 1b EC50; for HCV Replicon 1b SI50: SI50 = CC50/EC50. The method, then:
(§1) The HCV RNA replication inhibitory effect of the novel compounds and their impact on cell viability was tested in the stable cell line Huh5-2 carrying an HCV subgenomic reporter replicon of genotype 1b (strain Con1). The viral replication level was measured in terms of the activity of the co-expressed firefly luciferase (F-Luc). Several concentrations of the tested compounds were prepared in a cell culture medium and were used to treat the cells for 72 h. The solvent DMSO was added as a control with a final concentration of 0.2% so as not to impact viral replication (data not shown). First, different compound concentrations of up to 100 μM were evaluated for their effect on cell viability; results are reported as the median cytotoxic concentration (CC50). Next, all compounds were screened for their anti-HCV activity at a concentration of 1 µM, and compounds showing ≥50% activity were further tested in several concentrations to calculate the median effective concentration (EC50) values (Table 1 and Table 2). The anti-HCV activity of the analogs 1–32 was estimated by quantifying luciferase activity resulting from viral replication. Cytotoxicity was determined by measuring the intracellular levels of ATP. The selectivity index (SI50) was calculated as the ratio of CC50 to EC50 and was calculated as an indication of the compounds’ safety. We used daclatasvir as a positive control.
The stable replicon cell line Huh5-2 (genotype 1b; Con1) (kindly provided by R. Bartenschlager, Heidelberg University, Germany) has been described previously. The stable cell lines Huh7.5-3a and Huh7.5-4a have been constructed with the subgenomic reporter replicons of HCV 3a (S52) S52-SG(Feo)(AII) and HCV 4a (ED43) ED43-SG(Feo)(VYG) (kindly provided by C.M. Rice, The Rockefeller University, NY). Cells were cultured in high glucose (25 mM) Dulbecco’s modified minimal essential medium (Invitrogen), supplemented with 2 mM L-glutamine, 0.1 mM non-essential amino acids, 100 U/mL penicillin, 100 µg/mL streptomycin, and 10% (v/v) fetal calf serum (referred to as complete DMEM). Complete DMEM was supplemented with G418 at 500 μg/mL for Huh5-2, 750 μg/mL for Huh7.5-3a, and 350 μg/mL for Huh7.5-4a.
(§2) Cells were treated with serial dilutions of the test compounds or the solvent DMSO for 72 h. Antiviral activity and cytotoxicity were determined by measuring virus-derived luciferase activity or intracellular ATP levels, respectively. The median effective concentration (EC50) of the compounds, reducing luciferase signal by 50%, and their median cytotoxic concentration (CC50), causing 50% cell death, were determined by nonlinear regression analysis using the Prism 6.0 software (GraphPad Software Inc.). Daclatasvir was kindly provided by Dr. Marc Windisch (Institut Pasteur Korea).
Firefly luciferase activity was measured using Luciferase Assay System (Promega), according to the manufacturer’s instructions. Measurements were performed with a GloMax 20/20 single tube luminometer (Promega) for 10 s. Values were normalized to total protein amounts as quantified by Bradford assay (Pierce).

Data set [2] is described as follows: Cytotoxicity by intracellular ATP levels. The data set is classed as cell-based. Conditions: human, Huh5-2 cells, read-out: HCV Replicon 1b CC50. The method, then:
as §1, §2
ATP was measured using the ViaLight HS BioAssay kit (Lonza) according to the manufacturer’s protocol in a GloMax 20/20 single-tube luminometer (Promega) for 1 s. Values were normalized to total protein amounts.
In general terms: A replicon is a self-replicating genome or part of one, used to study replication in cells.

As for `COC(=O)N[C@H](C(=O)N1CCC[C@H]1C(=O)Nc1ccc2c(c1)Cc1cc(NC(=O)[C@@H]3CCCN3C(=O)[C@@H](NC(=O)OC)C(C)C)ccc1-2)C(C)C` [Compound 1, Dimethyl((2S,2’S)-((2S,2’S)-(((9H-fluorene-2,7-diyl)bis(azanediyl))bis(carbonyl))bis(pyrrolidine-2,1-diyl))bis(3-methyl-1-oxobutane-1,2-diyl))dicarbamate], the “fold more potent than six-membered congeners” value in data set [1] is recorded as “five”.

As for `CCOC(=O)N[C@H](C(=O)N1CCC[C@H]1C(=O)Nc1ccc2c(c1)Cc1cc(NC(=O)[C@@H]3CCCN3C(=O)[C@@H](NC(=O)OCC)C(C)C)ccc1-2)C(C)C` [Compound 2, Diethyl((2S,2’S)-((2S,2’S)-(((9H-fluorene-2,7-diyl)bis(azanediyl))bis(carbonyl))bis(pyrrolidine-2,1-diyl))bis(3-methyl-1-oxobutane-1,2-diyl))dicarbamate], in data set [1], the EC50 was > 1000 nM. In data set [2], the CC50 at 72 h is > 100000 nM.

With `CCCCOC(=O)N[C@H](C(=O)N1CCC[C@H]1C(=O)Nc1ccc2c(c1)Cc1cc(NC(=O)[C@@H]3CCCN3C(=O)[C@@H](NC(=O)OCCCC)C(C)C)ccc1-2)C(C)C` [Compound 3, Dibutyl((2S,2’S)-((2S,2’S)-(((9H-fluorene-2,7-diyl)bis(azanediyl))bis(carbonyl))bis(pyrrolidine-2,1-diyl))bis(3-methyl-1-oxobutane-1,2-diyl))dicarbamate], the EC50 in data set [1] was > 1000 nM. Further, the CC50 at 72 h in data set [2] was > 100000 nM.

For `CC(C)[C@H](NC(=O)OCc1ccccc1)C(=O)N1CCC[C@H]1C(=O)Nc1ccc2c(c1)Cc1cc(NC(=O)[C@@H]3CCCN3C(=O)[C@@H](NC(=O)OCc3ccccc3)C(C)C)ccc1-2` [Compound 4, Dibenzyl ((2S,2’S)-((2S,2’S)-(((9H-fluorene-2,7-diyl)bis(azanediyl))bis(carbonyl))bis(pyrrolidine-2,1-diyl))bis(3-methyl-1-oxobutane-1,2-diyl))dicarbamate], in data set [1], the 50% effective concentration (EC50) was determined as 967 nM and the “HCV Replicon 1b SI50” value is given as >103. For the same compound, the CC50 at 72 h in data set [2] is > 100000 nM.

For `COC(=O)N[C@@H](C(=O)N1CCC[C@H]1C(=O)Nc1ccc2c(c1)Cc1cc(NC(=O)[C@@H]3CCCN3C(=O)[C@H](NC(=O)OC)C(C)C)ccc1-2)C(C)C` [Compound 5, Dimethyl ((2R,2’R)-((2S,2’S)-(((9H-fluorene-2,7-diyl)bis(azanediyl))bis(carbonyl))bis(pyrrolidine-2,1-diyl))bis(3-methyl-1-oxobutane-1,2-diyl))dicarbamate], in data set [1], the 50% effective concentration (EC50) came to 801 nM and the “HCV Replicon 1b SI50” value is >125. Besides, the cytotoxic concentration (CC50) at 72 h in data set [2] was > 100000 nM.

As for `CCOC(=O)N[C@@H](C(=O)N1CCC[C@H]1C(=O)Nc1ccc2c(c1)Cc1cc(NC(=O)[C@@H]3CCCN3C(=O)[C@H](NC(=O)OCC)C(C)C)ccc1-2)C(C)C` [Compound 6, Diethyl((2R,2’R)-((2S,2’S)-(((9H-fluorene-2,7-diyl)bis(azanediyl))bis(carbonyl))bis(pyrrolidine-2,1-diyl))bis(3-methyl-1-oxobutane-1,2-diyl))dicarbamate], in data set [1], the concentration for a half-maximal effect (EC50) was found to be 102 nM and the “HCV Replicon 1b SI50” value came out at 780. Further, the CC50 at 72 h in data set [2] is 79600 nM.

With `CCCCOC(=O)N[C@@H](C(=O)N1CCC[C@H]1C(=O)Nc1ccc2c(c1)Cc1cc(NC(=O)[C@@H]3CCCN3C(=O)[C@H](NC(=O)OCCCC)C(C)C)ccc1-2)C(C)C` [Compound 7, Dibutyl((2R,2’R)-((2S,2’S)-(((9H-fluorene-2,7-diyl)bis(azanediyl))bis(carbonyl))bis(pyrrolidine-2,1-diyl))bis(3-methyl-1-oxobutane-1,2-diyl))dicarbamate], in data set [1], the EC50 was determined as 981 nM and the “HCV Replicon 1b SI50” value was >102. In addition, the 50% cytotoxic concentration (CC50) at 72 h in data set [2] was > 100000 nM.

For `CC(C)[C@@H](NC(=O)OCc1ccccc1)C(=O)N1CCC[C@H]1C(=O)Nc1ccc2c(c1)Cc1cc(NC(=O)[C@@H]3CCCN3C(=O)[C@H](NC(=O)OCc3ccccc3)C(C)C)ccc1-2` [Compound 8, Dibenzyl((2R,2’R)-((2S,2’S)-(((9H-fluorene-2,7-diyl)bis(azanediyl))bis(carbonyl))bis(pyrrolidine-2,1-diyl))bis(3-methyl-1-oxobutane-1,2-diyl))dicarbamate], in data set [1], the concentration giving a half-maximal response (EC50) came to 45.4 nM and the “HCV Replicon 1b SI50” value is >2202. Also, the cytotoxic concentration (CC50) at 72 h in data set [2] is > 100000 nM.

With `COC(=O)N[C@H](CC(C)C)C(=O)N1CCC[C@H]1C(=O)Nc1ccc2c(c1)Cc1cc(NC(=O)[C@@H]3CCCN3C(=O)[C@@H](CC(C)C)NC(=O)OC)ccc1-2` [Compound 13, Dimethyl((2R,2’R)-((2S,2’S)-(((9H-fluorene-2,7-diyl)bis(azanediyl))bis(carbonyl))bis(pyrrolidine-2,1-diyl))bis(4-methyl-1-oxopentane-1,2-diyl))dicarbamate], in data set [1], the EC50 was 0.081 nM and the “HCV Replicon 1b SI50” value is >1,238,850. Also, in data set [2], the CC50 at 72 h was > 100000 nM.

In the case of `CCOC(=O)N[C@H](CC(C)C)C(=O)N1CCC[C@H]1C(=O)Nc1ccc2c(c1)Cc1cc(NC(=O)[C@@H]3CCCN3C(=O)[C@@H](CC(C)C)NC(=O)OCC)ccc1-2` [Compound 14, Diethyl ((2R,2’R)-((2S,2’S)-(((9H-fluorene-2,7-diyl)bis(azanediyl))bis(carbonyl))bis(pyrrolidine-2,1-diyl))bis(4-methyl-1-oxopentane-1,2-diyl))dicarbamate], in data set [1], the half-maximal effective concentration (EC50) came out at 2.55 nM and the “HCV Replicon 1b SI50” value is >39,185. Besides, the CC50 at 72 h in data set [2] is > 100000 nM.

Turning to `CCCCOC(=O)N[C@H](CC(C)C)C(=O)N1CCC[C@H]1C(=O)Nc1ccc2c(c1)Cc1cc(NC(=O)[C@@H]3CCCN3C(=O)[C@@H](CC(C)C)NC(=O)OCCCC)ccc1-2` [Compound 15, Dibutyl((2R,2’R)-((2S,2’S)-(((9H-fluorene-2,7-diyl)bis(azanediyl))bis(carbonyl))bis(pyrrolidine-2,1-diyl))bis(4-methyl-1-oxopentane-1,2-diyl))dicarbamate], in data set [1], the EC50 is > 1000 nM. Also, the CC50 at 72 h in data set [2] amounted to 34200 nM.

On to `CC(C)C[C@@H](NC(=O)OCc1ccccc1)C(=O)N1CCC[C@H]1C(=O)Nc1ccc2c(c1)Cc1cc(NC(=O)[C@@H]3CCCN3C(=O)[C@@H](CC(C)C)NC(=O)OCc3ccccc3)ccc1-2` [Compound 16, Dibenzyl((2R,2’R)-((2S,2’S)-(((9H-fluorene-2,7-diyl)bis(azanediyl))bis(carbonyl))bis(pyrrolidine-2,1-diyl))bis(4-methyl-1-oxopentane-1,2-diyl))dicarbamate], for which the EC50 in data set [1] is > 1000 nM. Moreover, the CC50 at 72 h in data set [2] is > 100000 nM.

As for `COC(=O)N[C@H](C(=O)N1CCC[C@H]1C(=O)Nc1ccc2c(c1)Cc1cc(NC(=O)[C@@H]3CCCN3C(=O)[C@@H](NC(=O)OC)c3ccccc3)ccc1-2)c1ccccc1` [Compound 21, Dimethyl((1S,1’S)-((2S,2’S)-(((9H-fluorene-2,7diyl)bis(azanediyl))bis(carbonyl))bis(pyrrolidine-2,1-diyl))bis(2-oxo-1-phenylethane-2,1-diyl))dicarbamate], in data set [1], the “fold more potent than six-membered congeners” value was 36 fold, the concentration for a half-maximal effect (EC50) stood at 8.5 nM and the “HCV Replicon 1b SI50” value is listed as 10,298. For the same compound, the half-maximal cytotoxic concentration (CC50) at 72 h in data set [2] is 87500 nM.

In the case of `CCOC(=O)N[C@H](C(=O)N1CCC[C@H]1C(=O)Nc1ccc2c(c1)Cc1cc(NC(=O)[C@@H]3CCCN3C(=O)[C@@H](NC(=O)OCC)c3ccccc3)ccc1-2)c1ccccc1` [Compound 22, Diethyl((1S,1’S)-((2S,2’S)-(((9H-fluorene-2,7-diyl)bis(azanediyl))bis(carbonyl))bis(pyrrolidine-2,1-diyl))bis(2-oxo-1-phenylethane-2,1-diyl))dicarbamate], in data set [1], the EC50 was found to be 7.49 nM and the “HCV Replicon 1b SI50” value is listed as >13,349. Besides, the CC50 at 72 h in data set [2] was > 100000 nM.
